Laboratory results from patent publication US20260335300A1, “Synthetic Nicotine Analogue Formulation For Nicotine Replacement and Amplication” (priority 2023, published 2026).

Key:
[1] = Chemical stability in air / exposure to atmosphere for 24 hours, discoloration, blending; type: physicochemical
mice [2] = conditions: comparison value; cited from earlier work
rats [3] = conditions: comparison value; cited from earlier work
[4] = background statement, cited from earlier work; for satisfaction in oral and nasal products: novel oral and nasal nicotine products; for satisfaction and 'throat-hit' sensation: novel tobacco products
rats [5] = conditions: acute oral
in vivo = conditions: rat, po
mice [6] = conditions: mouse, in vivo
[7] = Solubility in appropriate solvents; type: physicochemical; conditions: in the appropriate solvents

For `Cc1ccc([C@H]2CCCN2C)cn1` [(R)-6-Methylnicotine, reference compound], the “efficacy as nicotine analogue and flavor” value (enantiomer, no test described) was “not effective as a nicotine analogue, and contributes to unpleasant flavors”.
In the case of `CN1CCCC1c1cccnc1` (stereo not drawn) [nicotine], the “yellowing on exposure to atmosphere” value ([1]; exposed to atmosphere for 24 hours) is given as “yellowing was observed sooner than (S)-6-Methylnicotine”, the “acute oral LD50 of nicotine” value (mice [2]) is given as “about 3.3 mg/kg BW” and the “acute oral LD50 of nicotine” value (rats [3]) is given as 50 mg/kg.
For `O=c1cccc2n1C[C@@H]1CNC[C@H]2C1` [cytisine], the “satisfaction in oral and nasal products” value [4] is listed as “limited satisfaction due to a lack of satisfactory sensations” and the “satisfaction and 'throat-hit' sensation” value [4] is listed as “lack of satisfaction and ‘throat-hit’ sensation”.
In the case of `Cc1ccc([C@@H]2CCCN2C)cn1.O=C(O)c1ccccc1` [(S)-6-Methylnicotine benzoate], the “reduction in toxicity versus nicotine on an equivalent effective use basis” value (rats [5]; equivalent effective use basis) is reported as 2 order of magnitude, the “toxicity relative to nicotine” value (rats [5]; versus nicotine) is reported as “half to one quarter as toxic” and the LD50 (in vivo) is reported as 120 to 215 mg/kg.
In the case of `Cc1ccc([C@@H]2CCCN2C)cn1` [(S)-6-Methylnicotine, (S)-2-methyl-5-(1-methylpyrrolidin-2-yl)pyridine], the “chemical stability compared to nicotine” value ([1]; degradation and discoloration) is reported as “more chemically stable than nicotine, and resists degradation and discoloration”, the “lifetime in the air relative to nicotine” value ([1]; in the air, versus nicotine, may potentially) is reported as no more than 5 times and the “stability when blended with other compounds” value ([1]; versus nicotine, blended with other compounds) is reported as “more stable than nicotine when blended with other compounds”. For the same compound, the “resistance to higher temperatures” value ([1]; versus nicotine, may) was “may be able to resist higher temperatures”, the “reduction of oral toxicity versus nicotine” value (mice [6]) was ~3 order of magnitude and the “toxicity compared to nicotine, in words” value (mice [6]; po) was “both less toxic, and can be used in lower amounts than nicotine”. For the same compound, the solubility [7] was “acceptable for all of the aforementioned applications”, the “relief from cravings / subjective hit sensation” value (in words) was “induces a subjective “hit” sensation which satisfies cravings” and the “onset of action compared to nicotine” value (preliminary, versus nicotine) was “may be faster acting”.
In the case of `COC(=O)C1=CCCN(C)C1` [arecoline], the “satisfaction in oral and nasal products” value [4] is given as “limited satisfaction due to a lack of satisfactory sensations” and the “satisfaction and 'throat-hit' sensation” value [4] is given as “lack of satisfaction and ‘throat-hit’ sensation”.
For `CN1CCCC1c1cccnc1` (racemic) [racemic nicotine], the “satisfaction and 'throat-hit' sensation” value [4] is given as “does not induce the distinctive satisfaction and ‘throat-hit’ sensation”.
